From patent US20180168215A1, “NUTRITIONAL COMPOSITIONS CONTAINING INOSITOL AND USES THEREOF” (Mead Johnson Nutrition Company, priority 2016, published 2018)

Tests used:
[1] = system: hippocampal cultures from embryonic E18 rats; assay: Synaptogenesis in embryonic neuronal culture, quantitative immunostaining for Bassoon, Homer and MAP2; assay type: cell-based, rat
Source text: Example 4 illustrates that supplementation with inositol produces strong synaptogenic effects. Nerve cells communicate with each other in the brain through specialized junctions, called synapses. These junctions start to form in the human brain before birth and continue to develop at a rapid rate in the early postnatal period. Changes in this synaptogenic process impair the wiring of the brain and can cause developmental disorders. While effects related to caloric intake and selected nutrients on general brain function have been characterized, limited information exists on the specific roles of nutrients and natural nutrients in synapse formation. Accordingly, Example 4 illustrates the effects of inositol on hippocampal neurons and analyzed them by quantitative immunostaining for synaptic markers. Dissociated neuronal cultures were prepared from rat hippocampus and used in this culture system. It was observed that neurons undergo most rapid synaptogenesis at or by day 14 in vitro (14DIV). By day 21 in vitro (21 DIV), most neurons have become mature and synapse formation occurs at a slower rate. Accordingly, testing at day 14 or 21 in vitro therefore allows for distinguishing nutrient effects at different developmental stages. The neurons were grown in either in standard neurobasal NB medium which contains 40 uM inositol according to the manufacturer; or in 200 μM inositol using custom made medium from LifeTechnology that lacks inositol and that was supplemented with inositol to 200 μM; or without inositol using just the custom made medium from the same manufacturer that lacks inositol. The neurons and synapses were determined by staining Bassoon as a presynaptic active zone marker in green fluorescence, Homer as a postsynaptic marker in red, and MAP2 as a dendrite marker in blue. […] Quantitively, increasing inositol to higher concentrations further promoted its synaptogenic effects (see FIG. 4D) at pre-synaptic sites. The pre-synapses were measured by quantifying the number of bassoon in the puncta per 10 micron dendrite. […] The results were determined by quantitative immunostaining for the presynaptic marker (Bassoon) and the excitatory postsynaptic (Homer). (See. FIG. 4E). Indeed, as shown in FIGS. 4A-4C, hippocampal cultures from embryonic E18 rats grown at the indicated inositol concentrations were analyzed by quantitative immunostaining. FIG. 4A illustrates neurons grown under control conditions and stained for the presynaptic marker Bassoon (in green), the postsynaptic scaffold protein Homer (in red), and the dendritic marker MAP2 (in blue). FIG. 4B illustrates neurons grown with supplemented inositol at 200 μM from 4-14 days in vitro. FIG. 4C illustrates neurons grown without inositol. […] Additionally, FIG. 5 illustrates that treatment with inositol promotes the alignment of pre- and post-synaptic sites. […] Hippocampal cultures from embryonic rats were analyzed by quantitative immunostaining. […] In brief, the presynaptic markers were stained with […] and are shown in green and the post-synaptic markers were stained with homer in and are shown in red. The co-localization of pre- and post-synapse was determined the appearance of a yellow signal, which is produced when green color mixes with red. The quantification was analyzed by using Imag J software and co-localization was calculated by counting the numbers of yellow puncta per […] dendrite. Briefly, hippocampal cultures from embryonic rats were analyzed by quantitative immunostaining. […] The pre-synapse size was determined by the puncta size of bassoon; while the post-synapse size by that of homer. The histochemistry images were analyzed by using Image J software.

[2] = system: hippocampal neurons; assay: PDL-coated bead presynaptic formation, immunostaining for synapsin1, bassoon and β-tubulin III; assay type: cell-based, rat
Source text: Example 1 illustrates that inositol has a does dependent effect on neurotransmission. Due to the continuum of synapse development in vivo, it is difficult to quantitatively assess synapse development. However, in order to provide at time stamp for synapse development, Example 1 is directed to a PDL-coated bead in a culture medium designed to induce synaptic formation. […] By adding the PDL-coated beads to the axonal compartment of the microfluidic compartment, it allows for the visualization of presynaptic terminal development without the overwhelming signal from somata or dendrites. Indeed, this experimental set-up allows for the subjection of distinct compartments to nutrients of interest. The method used herein is described in the reference, Taylor, A. M. et al. “A microfluidic culture platform for CNS axonal injury regeneration and transport.” Nat Methods, 2005. 2(8): p. 599-605, which is incorporated by reference. Briefly, the microfluidic chip contains four chambers, two at the left side and two at the right connected by microgrooves in the center. […] The images were taken and quantified by using confocal microscopy. […] The measurements were quantified and subjected to statistical analysis by two-way ANOVA.

[3] = system: rat hippocampal neurons; assay: FM dye release on electrical field stimulation of neurons in microfluidic devices; assay type: cell-based; settings: for releasing FM Dye as an indicator of neural transmitter release: 9DIV
Source text: Example 1 illustrates that inositol has a does dependent effect on neurotransmission. Due to the continuum of synapse development in vivo, it is difficult to quantitatively assess synapse development. However, in order to provide at time stamp for synapse development, Example 1 is directed to a PDL-coated bead in a culture medium designed to induce synaptic formation. […] By adding the PDL-coated beads to the axonal compartment of the microfluidic compartment, it allows for the visualization of presynaptic terminal development without the overwhelming signal from somata or dendrites. Indeed, this experimental set-up allows for the subjection of distinct compartments to nutrients of interest. The method used herein is described in the reference, Taylor, A. M. et al. “A microfluidic culture platform for CNS axonal injury regeneration and transport.” Nat Methods, 2005. 2(8): p. 599-605, which is incorporated by reference. Briefly, the microfluidic chip contains four chambers, two at the left side and two at the right connected by microgrooves in the center. The cortical and hippocampal dissociated neurons from embryonic rat (E18) and mouse (E17) were seeded in the left (somal) side of the chambers with a density of approximately 3×10^6 cells/ml, yielding approximately 3,000 cells in the somal side of the chamber. The PDL-coated nanobeads were added to the right side of the chamber. In each testing condition, the culture medium contains different nutrient. The immunohistochemistry analysis was performed in order to assess the impact on synaptic development provided by the nutrients. The cultures were fixed using 4% paraformaldehyde for 30 min at room temperature. The cultures then were washed twice with phosphate-buffered saline (PBS) for 5 min, and then permeabilized using PBS with 0.2% Triton X-100 for 30 min. To block nonspecific binding, PBS with 0.2% Triton X-100 and 10% goat serum was used. The primary antibodies were exposed to PBS with 0.2% Triton X-100 and 5% goat serum at 4° C. overnight, followed by brief rinsing of the cultures 3 times for 10 min. They were then incubated them with secondary antibody (conjugated with Alexa Fluor 488 or 568) in PBS for 1 h. The images were taken and quantified by using confocal microscopy. At embryonic Day 18, rat hippocampal neurons were plated on to microfluidic devices and inositol was added to both somal and axonal compartments from second day in vitro. Cultures were exposed with different concentrations of inositol at 200 μM, 600 μM, 1200 μM, or the control 40 μM, every 3 days by completely changing the media every three days. At 9 days in vitro (9DIV) the cultures were loaded with FM dye and electrical field stimulation of somal compartments was performed on each for about one minute.

[4] = system: Hippocampal cultures from embryonic rats; assay: Inositol plus DHA, presynaptic Bassoon puncta by quantitative immunostaining; assay type: cell-based, rat; settings: compared to a DMSO control; FIG. 7
Experimental: Example 5 illustrates synergistic effect of inositol and DHA. FIG. 7 illustrates the effect of inositol in combination with DHA for presynaptic development. Hippocampal cultures from embryonic rats were analyzed by quantitative immunostaining. […] (See FIG. 7).

[5] = system: E18 hippocampal neurons; assay: Axon growth in microfluidic devices, immunohistochemistry with β-tubulin III; assay type: cell-based; settings: addition of 600 μM inositol vs inositol free media
Source text: Example 3 illustrates that inositol exposure increases neuronal axon growth. Generally, an axon is a long, slender projection of a neuron that conducts electrical impulses away from the neuron's cell body. Myelinated axons are generally known as nerve fibers. Axons make contact with other neurons at synapses. Therefore, the healthy status of a neural axon is fundamentally important for proper brain function. The integrity and growth of axons can be measured by immunohistochemistry with β-tubulin III. Indeed, illustrated herein, the absence of inositol causes axon growth to stop and truncate prematurely; while supplementation of inositol provides healthy growth of neuronal axons. […] The axons of hippocampal neurons lost continuity and disintegrated. […] Taken together, inositol is essential for axon development and higher concentrations of inositol benefits the extension of axons.

## O[C@H]1[C@H](O)[C@@H](O)[C@H](O)[C@@H](O)[C@H]1O [inositol]
[1]; compared to control as well as DHA at 20 μM, FIG. 4D
  pre-synaptic puncta density (number of bassoon puncta per 10 micron dendrite): increase the pre-synaptic puncta density in a statistically significant manner
[1]; higher concentrations of inositol, compared to the control and DHA at 20 μM, FIG. 4E
  post-synaptic sites as measured by post-synaptic marker (Homer) density: enhance post-synaptic sites
[1]; increasing inositol
  overall health of neuron: promotes the overall health of neuron
[1]; increasing inositol from standard 40 μM to 200 μM
  density of pre- and post-synaptic specializations: substantially elevates the density of pre- and post-synaptic specializations
[1]; lowest tested concentrations of inositol
  effect on synapse number relative to DHA: effects comparable to DHA
[1]; supplementation from 4-14 days in vitro, FIG. 6A
  size of presynaptic sites (Bassoon puncta size): increase the size of presynaptic sites
[1]; supplementation from 4-14 days in vitro, FIG. 6B
  size of postsynaptic sites (Homer puncta size): increase the size
[1]; treatment from 4-14 days in vitro, FIG. 5
  co-localization of pre-synaptic (Bassoon) with post synaptic (Homer) sites: increased the extent to which pre-synaptic sites (as measured by Bassoon staining) co-localized with post synaptic sites
[1]; treatment from 7-14 days in vitro
  synapse number: increased synapse number
[2]; 10DIV hippocampal neurons, FIGS. 2A and 2B
  synapsin 1 and bassoon clustering at the bead-axon terminals: increases synapsin 1 and bassoon clustering
[2]; inositol at 600 μM vs 40 μM control, FIG. 2A
  presynaptic assembly: significantly increases the presynaptic assembly
[3]; 200 μM inositol vs control wells containing 40 μM inositol
  releasing FM Dye as an indicator of neural transmitter release: significant increases in releasing FM Dye
[3]; 600 μM inositol vs control wells containing 40 μM inositol
  releasing FM Dye as an indicator of neural transmitter release: significant increases in releasing FM Dye
[3]; 600 μM inositol wells
  neural transmitter releasing, consistency of results: consistent and robust results with enhanced neural transmitter releasing
[3]; tested 200, 600, 1200 μM, dose dependent, statistically significant
  concentration at which the highest effects on FM dye releasing were observed: 600 µM
[4]
  presynaptic Bassoon puncta: increased the presynaptic Basson puncta
[5]
  axon growth: restore and promote the healthy growth of axons
